Measured values as given in patent US5703079A, “Tetrahydrofuran antifungals” (Schering Corporation, priority 1995, dated 1997).

Key:
[1] = tested on: Cryptococcus neoformans; assay: in vitro antifungal broth dilution, Cryptococcus neoformans (3 strains); format: cell-based; conditions: for percentages of strains with MICs ≤1 mcg/ml: Table Q; for percentages of strains with MFCs ≤1 mcg/ml: Table R; for MIC 90: Table S, MIC for 90% of the strains
Procedure: (§1) The in vitro antifungal activity tests were performed via conventional broth dilution methods in Sabouraud dextrose broth ("SDB") medium and Eagles Minimum Essential Medium ("EMEM") against a large number of fungi. Minimum Inhibitory Concentrations ("MICs") were measured after 24, 48 and 72 hour tests. In many cases, Minimum Fungicidial Concentrations ("MFCS") were measured after 48 and 72 hours.

[2] = tested on: Candida tropicalis & stellatoidea; assay: in vitro antifungal broth dilution, Candida tropicalis & stellatoidea (5 strains); format: cell-based; conditions: for percentages of strains with MICs ≤1 mcg/ml: Table Q; for percentages of strains with MFCs ≤1 mcg/ml: Table R; for MIC 90: Table S, MIC for 90% of the strains
Procedure: as §1

[3] = tested on: Aspergillus; assay: in vitro antifungal broth dilution, Aspergillus (37 strains); format: cell-based, Aspergillus (flavus, fumigatus and other species); conditions: for percentages of strains with MFCs ≤1 mcg/ml / percentages of strains with MICs ≤1 mcg/ml: Aspergillus, 37 strains; for percentages of strains with MFCs ≤1 mcg/ml: Table R; for percentages of strains with MICs ≤1 mcg/ml: Table Q
Procedure: as §1

[4] = tested on: Candida krusei; assay: in vitro antifungal broth dilution, Candida krusei (16 strains); format: cell-based; conditions: for percentages of strains with MFCs ≤1 mcg/ml: Table R; for percentages of strains with MICs ≤1 mcg/ml: Table Q
Procedure: as §1

[5] = tested on: Candida albicans; assay: in vitro antifungal broth dilution, Candida albicans (26 strains); format: cell-based; conditions: for percentages of strains with MICs ≤1 mcg/ml: Table Q; for percentages of strains with MFCs ≤1 mcg/ml: Table R; for MIC 90: Table S, MIC for 90% of the strains
Procedure: as §1

[6] = tested on: Candida glabrata; assay: in vitro antifungal broth dilution, Candida glabrata (9 strains); format: cell-based; conditions: for percentages of strains with MICs ≤1 mcg/ml: Table Q; for percentages of strains with MFCs ≤1 mcg/ml: Table R; for MIC 90: Table S, MIC for 90% of the strains
Procedure: as §1

[7] = tested on: Dermatophytes; assay: in vitro antifungal broth dilution, dermatophytes (6 strains); format: cell-based, T. rubrum, T. mentagrophytes, and T. tonsurans; conditions: for percentages of strains with MFCs ≤1 mcg/ml: Table R; for percentages of strains with MICs ≤1 mcg/ml: Table Q
Procedure: as §1

[8] = serum levels, half lives and tissue distribution following oral dosing; format: in vivo; conditions: methyl cellulose formulation, mice, rats, dogs and monkeys

For `CCC(C(C)O)n1ncn(-c2ccc(N3CCN(c4ccc(OCC5COC(Cn6cncn6)(c6ccc(F)cc6F)C5)cc4)CC3)cc2)c1=O` (centres unmarked) [drawing 27], the “percentages of strains with MICs ≤1 mcg/ml” value [1] was 100%, the “percentages of strains with MFCs ≤1 mcg/ml” value [1] was 100% and the “MIC 90” value [1] was “.101 MCG/ML”. For the same compound, the “percentages of strains with MICs ≤1 mcg/ml” value [2] was 100%, the “percentages of strains with MFCs ≤1 mcg/ml” value [2] was 100% and the “MIC 90” value [2] was “.354 MCG/ML”. The “percentages of strains with MFCs ≤1 mcg/ml” value ([3]; listed as drawing 31) was 89%, the “percentages of strains with MFCs ≤1 mcg/ml” value ([4]; listed as drawing 31) was 100% and the “percentages of strains with MICs ≤1 mcg/ml” value [5] was 100%. The “percentages of strains with MFCs ≤1 mcg/ml” value [5] was 100%, the “MIC 90” value [5] was “.139 MCG/ML” and the “percentages of strains with MICs ≤1 mcg/ml” value [6] was 33%. The “percentages of strains with MFCs ≤1 mcg/ml” value [6] was 22%, the “MIC 90” value [6] was 28.8 MCG/ML and the “percentages of strains with MFCs ≤1 mcg/ml” value ([7]; listed as drawing 31) was 100%.
For `OC(Cn1cncn1)(Cn1cncn1)c1ccc(F)cc1F` [fluconazole, reference compound], the “percentages of strains with MICs ≤1 mcg/ml” value [1] was 0%, the “percentages of strains with MFCs ≤1 mcg/ml” value [1] was 0% and the “percentages of strains with MICs ≤1 mcg/ml” value [2] was 100%. For the same compound, the “percentages of strains with MFCs ≤1 mcg/ml” value [2] was 100%, the “percentages of strains with MICs ≤1 mcg/ml” value [3] was 0% and the “percentages of strains with MFCs ≤1 mcg/ml” value [3] was 0%. For the same compound, the MFC ([3]; SDB, 37 species of Aspergillus, compared to fluconazole, read-out: geometric mean MFC) was no less than 32 µg/mL, the “percentages of strains with MICs ≤1 mcg/ml” value [4] was 0% and the “percentages of strains with MFCs ≤1 mcg/ml” value [4] was 0%. For the same compound, the “percentages of strains with MICs ≤1 mcg/ml” value [5] was 100%, the “percentages of strains with MFCs ≤1 mcg/ml” value [5] was 100% and the “percentages of strains with MICs ≤1 mcg/ml” value [6] was 0%. The “percentages of strains with MFCs ≤1 mcg/ml” value [6] was 0%, the “percentages of strains with MICs ≤1 mcg/ml” value [7] was 100% and the “percentages of strains with MFCs ≤1 mcg/ml” value [7] was 0%.
With `CCC(C(C)O)n1ncn(-c2ccc(N3CCN(c4ccc(OCC5COC(Cn6cncn6)(c6ccc(F)cc6F)C5)cc4)CC3)cc2)c1=O` (centres unmarked) [drawing 24] the “serum levels compared to azoles of similar structure” value [8] was “consistently higher serum levels”.
With `CCC(C(C)O)n1ncn(-c2ccc(N3CCN(c4ccc(OCC5COC(Cn6cncn6)(c6ccc(F)cc6F)C5)cc4)CC3)cc2)c1=O` (centres unmarked) [drawing 26] the “percentages of strains with MICs ≤1 mcg/ml” value [1] was 100%, the “percentages of strains with MFCs ≤1 mcg/ml” value [1] was 100% and the “MIC 90” value [1] was “.007 MCG/ML”. The “percentages of strains with MICs ≤1 mcg/ml” value [2] was 100%, the “percentages of strains with MFCs ≤1 mcg/ml” value [2] was 100% and the “MIC 90” value [2] was “.117 MCG/ML”. The “percentages of strains with MFCs ≤1 mcg/ml” value ([3]; listed as drawing 30) was 62%, the “percentages of strains with MFCs ≤1 mcg/ml” value ([4]; listed as drawing 30) was 94% and the “percentages of strains with MICs ≤1 mcg/ml” value [5] was 100%. The “percentages of strains with MFCs ≤1 mcg/ml” value [5] was 100%, the “MIC 90” value [5] was “.174 MCG/ML” and the “percentages of strains with MICs ≤1 mcg/ml” value [6] was 22%. The “percentages of strains with MFCs ≤1 mcg/ml” value [6] was 22%, the “MIC 90” value [6] was 17.1 MCG/ML and the “percentages of strains with MFCs ≤1 mcg/ml” value ([7]; listed as drawing 30) was 83%.
In the case of `CCC(C(C)O)n1ncn(-c2ccc(N3CCN(c4ccc(OCC5COC(Cn6cncn6)(c6ccc(F)cc6F)C5)cc4)CC3)cc2)c1=O` (centres unmarked) [drawing 25], the “percentages of strains with MICs ≤1 mcg/ml” value [1] is reported as 100%, the “percentages of strains with MFCs ≤1 mcg/ml” value [1] is reported as 100% and the “MIC 90” value [1] is reported as “.05 MCG/ML”. The “percentages of strains with MICs ≤1 mcg/ml” value [2] was 100%, the “percentages of strains with MFCs ≤1 mcg/ml” value [2] was 100% and the “MIC 90” value [2] was “.117 MCG/ML”. For the same compound, the “percentages of strains with MICs ≤1 mcg/ml” value [3] was 100%, the “percentages of strains with MFCs ≤1 mcg/ml” value ([3]; listed as drawing 29) was 50% and the “percentages of strains with MICs ≤1 mcg/ml” value [4] was 100%. For the same compound, the “percentages of strains with MFCs ≤1 mcg/ml” value ([4]; listed as drawing 29) was 88%, the “percentages of strains with MICs ≤1 mcg/ml” value [5] was 100% and the “percentages of strains with MFCs ≤1 mcg/ml” value [5] was 100%. For the same compound, the “percentages of strains with MICs ≤1 mcg/ml” value [6] was 22%, the “percentages of strains with MFCs ≤1 mcg/ml” value [6] was 22% and the “percentages of strains with MICs ≤1 mcg/ml” value [7] was 100%. For the same compound, the “percentages of strains with MFCs ≤1 mcg/ml” value ([7]; listed as drawing 29) was 67%.
